Columns and labels:
[1] = Th^4+; 25° C.; cited from earlier work
[2] = Extraction by TODGA from HNO3 in the absence or presence of 1 mM 343HOPO
Description: Aqueous phase: 0 or 1 mM 343HOPO in HNO3. Organic phase: 0.1 M TODGA in kerosene. T=25° C. O/A=1, one contact. Points with arrows are lower limits.
Aqueous phase: 1 mM 343HOPO in 3 M HNO3. Organic phase: TODGA in kerosene. O/A=1. One contact. T=25° C.
(§1) For Example 20—Example 24, pH measurements were performed with a glass electrode (Metrohm-Micro Combi-response to [H+]) calibrated at 25.0° C. using three NIST standards. Extraction samples were analyzed by liquid scintillation counting (LSC). The distribution coefficient, D(M), of a given metal, M, is defined in Eq. 1, where [M]organic and [M]aqueous are the respective total concentrations of M in the organic and aqueous layers, after extraction. Both concentrations are proportional to the volumetric activity (in Bq/L) determined by LSC. The separation factor, SFM1/M2, between two metals, M1 and M2, and extraction yield were calculated according to Eq. 2 and Eq. 3, respectively.
(§2) In a typical experiment, the solvent (extractant diluted in kerosene) was pre-conditioned by shaking one volume of solvent with three volumes of aqueous phase (typically HNO3) at room temperature for 1 h, thrice. For radioisotope extractions, at least 400 μL aqueous phase (typically containing HNO3, a chelator and a radioisotope) and solvent were placed in air-tight screw-capped plastic tubes, triply-contained, and shaken in a thermoshaker at 300 rpm, 25° C., for at least 30 min. Samples were then centrifuged for 5 min at 3000 rpm and phases separated before analysis. LSC analyses were performed on a Packard Tri-Carb B4430 instrument (Perkin Elmer) after mixing sample aliquots or sample dilution aliquots (10 to 200 μL) with 10 mL of scintillation cocktail (UltimaGold LLT). Samples were counted for at least 6 min and results were background subtracted. The analytical samples contained between 0 and 800,000 CPM. Mixtures of ^249Bk and ^249Cf were analyzed using α/β discrimination and energy windows were set to 0-50 keV for low-energy β particles of ^249Bk and 50-1000 keV for α particles of ^249Cf. ^243Am and ^225Ac samples were counted at secular equilibrium.

[3] = Persistence of the metal complex versus acidity; format: binding; details: Ti^4+
[4] = Extraction by HDEHP at constant pH with 3,4,3-LI(1,2-HOPO) as hold-back reagent; details: 1 mM ligand; for % Extraction: 0.1 M HNO3/1.9 M NaNO3, extraction of ^153Gadolinium(III); for SF Gd^3+/Pu^4+: to be seen as lower limit
Description: (§3) In FIG. 26, aqueous phase: [ligand]=1 mM, buffer 0.1 M HNO3/1.9 M NaNO3. Organic phase: HDEHP diluted in kerosene. [HDEHP]=0.05, 0.10, 0.25, 0.50, 1.0, or 2.0 M. T=25° C. Volume organic phase/Volume aqueous phase=1. Initial metal concentrations: [Pu-242]=10 μM, [Am-243]=0.25 μM, or [Gd-153]=0.16 nM. Phases analyzed after one contact. Contact time: 30 min.
The separation factor values given here must been seen as lower limit since the extraction of Pu(IV) is near zero. […]

[5] = Extraction by TODGA from HNO3 in the absence or presence of 1 mM 343HOPO; remark: listed apart in the source
Description: Organic phase: 0.1 M TODGA in kerosene. Aqueous solvent: HNO3. T=25° C. O/A=1, one contact. Points with arrows are lower limits.
as §1, §2

[6] = Extraction by HDEHP at constant pH with 3,4,3-LI(1,2-HOPO) as hold-back reagent; details: 1 mM ligand; for % Extraction: 0.1 M HNO3/1.9 M NaNO3, extraction of ^242Plutonium(IV); for SF Am^3+/Pu^4+: to be seen as lower limit
Description: as §3
The separation factor values given here must been seen as lower limit since the extraction of Pu(IV) is near zero.

[7] = Ligand selectivity from stability constants; format: binding
Source text: While this class of ligands, encompassing HOPO and catecholamide (CAM) derivatives, has been known for decades, it had never been studied in details for separation applications. In fact, a few exceptions aside, most of these chelators have only been studied with a single cation, such as Gd^3+, Th^4+, or Pu^4+, impairing broader evaluation of their metal-metal selectivity. The chemistry of some HOPO ligands was recently extended across the periodic table, highlighting their outstanding selectivity, and large superiority over polyaminocarboxylate chelators (IDA, EDTA, DTPA, etc.), typically encountered in separations (FIGS. 46A-46F). Stability constants (log βML) were calculated as described in Sturzbecher-Hoehne, M., Kullgren, B., Jarvis, E. E., An, D. D. & Abergel, R. J. Highly Luminescent and Stable Hydroxypyridinonate Complexes: A Step Towards New Curium Decontamination Strategies. Chem. Eur. J. 20, 9962-9968 (2014); Sturzbecher-Hoehne, M., Yang, P., D'Aldo, A. & Abergel, R. J. Intramolecular sensitization of americium luminescence in solution: shining light on short-lived forbidden 5f transitions. Dalton Trans. 45, 9912-9919 (2016); Deblonde, G. J.-P., Lohrey, T. D., An, D. D. & Abergel, R. J. Toxic heavy metal—Pb, Cd, Sn—complexation by the octadentate hydroxypyridinonate ligand archetype 3,4,3-LI(1,2-HOPO). New J. Chem. 42, 7649-7658 (2018). […]

For `O=C(NCCCN(CCCCN(CCCNC(=O)c1cccc(=O)n1O)C(=O)c1cccc(=O)n1O)C(=O)c1cccc(=O)n1O)c1cccc(=O)n1O` [3,4,3-LI(1,2-HOPO)], the “log βML” value [1] is listed as 40.1 ± 0.5, the “SF, isolation of Bk from adjacent actinides and fission products” value ([2]; one-step separation method, summary statement) is listed as > 3×10^6 and the SFCf/Bk ([2]; regardless of the TODGA and HNO3 concentrations) is listed as > 1,000,000. The Bk extracted ([2]; throughout the acidity range, 1 mM 343HOPO, 0.1 M TODGA) was “less than 1%”, the “acidity range over which the ligand stays bound” value [3] was “from pH 6 to 10 M HCl (at least)” and the “% Extraction” value ([4]; HDEHP 0.05 M) was 4.92%. For the same compound, the “SF Gd^3+/Pu^4+” value ([4]; HDEHP 0.05 M) was 331, the “% Extraction” value ([4]; HDEHP 0.10 M) was 23.79% and the “SF Gd^3+/Pu^4+” value ([4]; HDEHP 0.10 M) was 1948. The “% Extraction” value ([4]; HDEHP 0.25 M) was 73.91%, the “SF Gd^3+/Pu^4+” value ([4]; HDEHP 0.25 M) was 5976 and the “% Extraction” value ([4]; HDEHP 0.50 M) was 92.15%. The “SF Gd^3+/Pu^4+” value ([4]; HDEHP 0.50 M) was 39182, the “% Extraction” value ([4]; HDEHP 1.00 M) was 97.85% and the “SF Gd^3+/Pu^4+” value ([4]; HDEHP 1.00 M) was 28460. The “% Extraction” value ([4]; HDEHP 2.00 M) was 99.26%, the “SF Gd^3+/Pu^4+” value ([4]; HDEHP 2.00 M) was 64723 and the SFU/Pu ([5]; 1 mM 343HOPO, 0.1 M TODGA in kerosene) was “around 50,000”. The “SF values between the trivalent ions and Pu^4+” value ([5]; 1 mM 343HOPO, 0.1 M TODGA in kerosene, LoD reached) was “above 450,000,000”, the “separation factor for redox-free Pu purification against uranyl ions and trivalent actinides or fission products” value ([5]; summary statement) was “over 10^8” and the “% Extraction” value ([6]; HDEHP 0.05 M) was 0.02%. The “SF Am^3+/Pu^4+” value ([6]; HDEHP 0.05 M) was 14, the “% Extraction” value ([6]; HDEHP 0.10 M) was 0.02% and the “SF Am^3+/Pu^4+” value ([6]; HDEHP 0.10 M) was 84. The “% Extraction” value ([6]; HDEHP 0.25 M) was 0.05%, the “SF Am^3+/Pu^4+” value ([6]; HDEHP 0.25 M) was 236 and the “% Extraction” value ([6]; HDEHP 0.50 M) was 0.03%. For the same compound, the “SF Am^3+/Pu^4+” value ([6]; HDEHP 0.50 M) was 1450, the “% Extraction” value ([6]; HDEHP 1.00 M) was 0.16% and the “SF Am^3+/Pu^4+” value ([6]; HDEHP 1.00 M) was 624. For the same compound, the “% Extraction” value ([6]; HDEHP 2.00 M) was 0.21%, the “SF Am^3+/Pu^4+” value ([6]; HDEHP 2.00 M) was 649 and the “Ce^4+/Ce^3+ selectivity above what could be expected from a carboxylate ligand” value [7] was “about 15 orders of magnitude”.

Source: patent US12002595B2, “Separation of metal ions by liquid-liquid extraction” (priority 2016, dated 2024)
